Measured values taken from publication PMC5457661, “Dysregulation of lysophosphatidic acids in multiple sclerosis and autoimmune encephalomyelitis” (Acta Neuropathologica Communications, 2017).
“Also recorded” adds a separate entry of the source. Like-named read-outs stand apart in the source and are kept apart here.

What was measured:
LPAR2 [1] = molecular target: T1, LPAR2 (Homo sapiens, UniProt Q9HBW0); assay: LPA receptor activation, aequorin-GFP calcium luminescence in COS-1 cells co-transfected with Gα15; assay type: cell-based
T1 construct: plasmids containing the indicated receptor cDNA or control (empty vector, mock); expressed in transfected cells; host or cells: COS-1
Description: (§1) To study the activation profile of heterologously expressed LPA receptors, COS-1 cells were seeded in 96-well plates at a density of 50.000 cells/well. Next day, they were co-transfected with plasmids containing cDNA for a calcium-sensitive bioluminescent fusion protein between aequorin and GFP [3] and plasmids containing the indicated receptor cDNA or control (empty vector, mock) together with the promiscuous Gα15 [42] at a concentration of 50 ng/well by using FuGENE 6 reagent (Promega) according to manufacturer’s instructions. Forty-eight hours later, cells were loaded with 5 μM coelenterazine h (Invitrogen) in HBSS buffer containing 1.8 mM CaCl2 and 10 mM glucose for 2 h at 37 °C. Measurements were performed by using a luminometric plate reader (Flexstation 3) for 100 s following ligand stimulation. The area under each calcium transient was calculated by using SoftMaxPro software and expressed as area under the curve (AUC). The following lipids were used for stimulation: 1-Palmitoyl-LPA (LPA16:0), 1-oleoyl-LPA (LPA18:1), 1-stearoyl-LPA (LPA18:0), 1-lineoyl-LPA (LPA18:2), 1-arachidonoyl-LPA (LPA20:4). LPA16:0 and 18:1 were from Cayman, the others from AvantiPolar Lipids.

LPAR1 = molecular target: T2, LPAR1 (Homo sapiens, UniProt Q92633); assay: as above; assay type: cell-based; details: compared with other LPAs
T2 construct: plasmids containing the indicated receptor cDNA or control (empty vector, mock); expressed in transfected cells; host or cells: COS-1
Description: as §1

LPAR1, 2, 3 or 4 [2] = assay: LPA receptor activation panel in COS cells with heterologous expression of LPAR1, 2, 3 or 4 plus Gα15, mock controls; assay type: cell-based, human; details: for LPAR activation (agonist activity): calcium transient AUC, all heterologously expressed LPARs
Description: as §1

serum LPAs [3] = assay: Serum LPA concentrations (LC-MS/MS) in medication subgroups of MS patients; assay type: in vivo, human; details: MS patients on prophylactic treatment vs no medication, beta interferon or other drugs
Description: Human samples and data were available from an observational cross-sectional investigation of 102 multiple sclerosis patients (31 men, 71 women, demographic data Table 1) consecutively recruited from outpatients and inpatients of the Department of Neurology of the Goethe University Hospital Frankfurt, Germany. Data and blood collection was part of the local bio-banking project (Neurological Department of the Goethe University, Frankfurt), adhered to the Declaration of Helsinki and was approved by the Ethics Committees of the Medical Faculty of the Goethe University. Cerebrospinal fluid samples were available from a previous study including 20 MS patients and 10 control patients with other non-inflammatory neurologic diseases. For long-term time course analyses additional 15 patients were recruited and observed up to 3.5 years. […]
(§2) Quantitative LPA analysis was performed with liquid chromatography-electrospray ionization-tandem mass spectrometry (LC-ESI-MS/MS) with a hybrid triple quadrupole-ion trap QTrap 5500 mass spectrometer (AB Sciex, Germany) as described without knowledge of clinical data or treatment groups. […] The internal standard method was used for quantification with Analyst Software V1.5 (Applied Biosystems, Germany). […]

serum LPAs [4] = assay: Serum LPA concentrations (LC-MS/MS) in treated SJL/J EAE mice; assay type: in vivo; details: 35 days after immunization, vs vehicle treated EAE mice
Description: Female SJL/J mice (Envigo, Germany), aged 10–12 weeks at immunization were used for study of relapsing-remitting EAE and female TCR^1640 mice for spontaneous RR-EAE [45]. Female C57BL6/J mice and LPAR2^−/− mice and LPAR2^+/+ littermates were used for the study of primary progressive EAE. LPAR2^−/− mice have a mixed C57BL6/J x Sv129 background with about 25% Sv129. Mice were housed at 3–5 mice per cage at constant room temperature (21 ± 1 °C) under a regular 12 h light/dark schedule. Food and water were available ad libitum. Animals were treated orally via the drinking water with FTY720 (fingolimod) at 0.5 mg/kg/d starting 3 days after immunization for preventive treatment. […] Oral bioavailability (F) of the LPAR2 agonist and basic kinetics were assessed by LC-MS/MS analysis of plasma concentrations. […] AUCs were calculated according to the linear trapezoidal rule. The clearance was calculated as Cl = Dose*F/AUCs and the half-life, t1/2 = ln2/λ, where λ is the terminal decay constant. […]
as §2

autotaxin [5] = system: autotaxin; set-up: method as in PMID 19215222; details: cited from earlier work
RR-EAE SJL/J mice = assay: Relapsing-remitting EAE (PLP139-151/CFA/PTX immunization), clinical scores, body weight, spinal cord immunofluorescence; assay type: in vivo
Description: (§3) Female SJL/J mice (Envigo, Germany), aged 10–12 weeks at immunization were used for study of relapsing-remitting EAE and female TCR^1640 mice for spontaneous RR-EAE [45]. Female C57BL6/J mice and LPAR2^−/− mice and LPAR2^+/+ littermates were used for the study of primary progressive EAE. LPAR2^−/− mice have a mixed C57BL6/J x Sv129 background with about 25% Sv129. Mice were housed at 3–5 mice per cage at constant room temperature (21 ± 1 °C) under a regular 12 h light/dark schedule. Food and water were available ad libitum. Animals were treated orally via the drinking water with FTY720 (fingolimod) at 0.5 mg/kg/d starting 3 days after immunization for preventive treatment. Monoclonal anti-Itga4 antibody treatment (natalizumab) in SJL/J mice consisted in 3 intraperitoneal injections (1x200 μg, 2x 150 μg) on day 11, 14 and 19. The LPAR2 agonist GRI 977143 was administered perorally in cornflakes soaked with 10% sucrose/10% DMSO in water with 100 μg/mouse/d of the drug starting 3d after immunization. Control animals received the respective vehicle. Oral bioavailability (F) of the LPAR2 agonist and basic kinetics were assessed by LC-MS/MS analysis of plasma concentrations. Tmax and Cmax were directly taken from the plasma concentration time courses. AUCs were calculated according to the linear trapezoidal rule. The clearance was calculated as Cl = Dose*F/AUCs and the half-life, t1/2 = ln2/λ, where λ is the terminal decay constant.
C57BL6/J and LPAR2 mice were immunized according to a standard protocol using the Hooke Kit™ MOG35-55/CFA emulsion PTX (EK-2110, Hooke Labs, St Lawrence, MA), which contains 200 μg myelin oligodendrocyte glycoprotein (MOG) 35–55 emulsified in 200 μl Complete Freund’s Adjuvant (CFA). The emulsion was injected subcutaneously at two sites followed by two intraperitoneal (i.p.) injections of 200 ng pertussis toxin (PTX) in phosphate buffered saline (PBS), the first 1–2 h after MOG35-55, and the second 24 h later. SJL mice were immunized using Hooke Kit™ PLP139-151/CFA emulsion PTX (EK-2120), which contains 200 μg myelin proteolipid protein (PLP) 139–151 in 200 μl CFA (Hooke Labs, US). Injections of the emulsion and PTX were done as described for C57BL6 mice.
EAE scores were assessed daily to evaluate the severity and extent of motor function deficits. Score 0, normal motor functions; score 0.5, distal paralysis of the tail; score 1, complete tail paralysis; score 1.5, mild paresis of one or both hind legs; score 2, severe paresis of hind legs; score 2.5, complete paralysis of one hind leg; score 3, complete paralysis of both hind legs; score 3.5, complete paralysis of hind legs and paresis of one front leg. Serum and tissues were sampled after the second peak, 35–36 days after immunization.
Mice were terminally anaesthetized with isoflurane and cardially perfused with cold 0.9% NaCl, followed by 4% paraformaldehyde (PFA) in 1x PBS for fixation. […]
Tiled images of individual sections were captured with equal filter and acquisition parameters to assure comparability independent of genotype or treatment and subsequently stitched to cover the complete ventral horn of the spinal cord. Iba1+ and CD11b + microglia/macrophages in the gray matter and white matter were quantified using the particle counter plugin of FIJI ImageJ. […] Three or more non-overlapping images of 3 mice were analyzed per group.

LPAR2 [6] = molecular target: T1, LPAR2; set-up: method as in not given; details: reported value; ref not given; cited from earlier work
[7] = Plasma concentration time courses and basic pharmacokinetics of the LPAR2 agonist (LC-MS/MS); assay type: in vivo, SJL/J mice
Description: as §3

LPAR1, 2, 3 or 4 [8] = molecular target: T3, LPAR1, 2, 3 or 4 (Homo sapiens, UniProt Q9HBW0); assay: LPA receptor activation panel in COS cells with heterologous expression of LPAR1, 2, 3 or 4 plus Gα15, mock controls; assay type: cell-based; details: COS cells with heterologous expression of LPAR1, 2, 3 or 4
T3 construct: expressed in transfected cells; host or cells: COS-1
Description: as §1

autotaxin [9] = molecular target: T4, autotaxin (Mus musculus, UniProt Q9R1E6); assay: LPA plasma concentration in naïve mice after autotaxin inhibitor; assay type: in vivo; details: i.p. 30 min before plasma sampling
T4 construct: from tissue; host or cells: living naïve mice, plasma sampled
Description: Quantitative LPA analysis was performed with liquid chromatography-electrospray ionization-tandem mass spectrometry (LC-ESI-MS/MS) with a hybrid triple quadrupole-ion trap QTrap 5500 mass spectrometer (AB Sciex, Germany) as described without knowledge of clinical data or treatment groups. Briefly, 2 cycles of liquid-liquid extraction of LPAs were done with 1-buthanol after adding the internal standard LPA17:0 (50 μl sample, 20 μl internal standard in 500 μl 1-butanol). The combined organic phases were dried under a gentle stream of nitrogen at 45 °C and subsequently re-dissolved in 200 μl methanol. A C18 column (Mercury 20 x 2 mm, 3 μm, 100 Å) and precolumn were used for chromatographic separation. A linear gradient was employed at a flow rate of 400 μl/min. Mobile phase A was water with ammonium formate 50 mM and formic acid (100:0.2, v/v) and mobile phase B acetonitrile/formic acid (100:0.1, v/v). The mass spectrometer operated in the negative ion mode and used multiple reaction monitoring (MRM). The mass transitions were m/z 409 → 79 (LPA 16:0), m/z 437 → 153 (LPA 18:0), m/z 431 → 79 (LPA 18:3) and m/z 457 → 153 (LPA 20:4) all with a dwell time of 50 ms. The internal standard method was used for quantification with Analyst Software V1.5 (Applied Biosystems, Germany). The calibration curve was linear over the range of 0.1–500 ng/ml and accuracy was >95%.

autotaxin [10] = molecular target: T4, autotaxin; assay: Autotaxin lyso-PLD activity ex vivo in primary splenocytes (C17-LPC to C17:0-LPA conversion); assay type: cell-based; details: splenocytes from treated EAE mice
Description: The spleens were removed and collected in a sterile wire mesh with 40 μm pore size over a Petri dish half filled with RPMI 1640 media and were gently pressed through the mesh using a 5 ml syringe plunger. The mesh was rinsed over the Petri dish with additional media to remove remaining cells. Disaggregated cells were transferred to a 15 ml Falcon tube and centrifuged at 2,000 rpm for 5 min and washed 2x in RPMI. The cell pellet was resuspended in RPMI, treated with erythrocyte lysis buffer for 10 min at room temperature, followed by centrifugation and resuspension in full medium (RPMI 1640 + 10% FBS + 1% Pen/Strep). Cells were plated in 6-well plates at 3x10^6/2 ml per well. Growth was stimulated with concanavalin A at 1 μg/ml. Cells were kept in an incubator at 37 °C, 95% humidity and 5% CO2 atmosphere and assays were performed after 2d in culture.
The lyso-PLD activity of ATX was measured in primary splenocytes of naïve and EAE mice. Cells were incubated for 2 h in 1.1 ml serum free RPMI 1640 medium and then stimulated for another 2 h with PMA 50 ng/ml and ionomycin 500 ng/ml in serum free medium before the autotaxin substrate, C17-LPC was added (100 μM in 1 μl in DMSO). […] C17-LPC is converted into the unnatural C17:0-LPA, which was analysed in supernatants and crude cell extracts by LC-MS/MS as described above. […]

T1 sequence (Q9HBW0 whole entry): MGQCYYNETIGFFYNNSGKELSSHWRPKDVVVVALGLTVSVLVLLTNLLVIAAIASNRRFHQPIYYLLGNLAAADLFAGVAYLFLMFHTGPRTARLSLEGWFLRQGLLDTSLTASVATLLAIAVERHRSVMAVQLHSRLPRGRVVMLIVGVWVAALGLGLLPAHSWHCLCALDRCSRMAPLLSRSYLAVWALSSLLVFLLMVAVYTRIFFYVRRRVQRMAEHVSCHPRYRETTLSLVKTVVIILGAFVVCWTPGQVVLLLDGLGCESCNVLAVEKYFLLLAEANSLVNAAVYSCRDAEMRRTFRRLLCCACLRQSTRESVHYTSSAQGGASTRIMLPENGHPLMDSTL
T2 sequence (Q92633 whole entry): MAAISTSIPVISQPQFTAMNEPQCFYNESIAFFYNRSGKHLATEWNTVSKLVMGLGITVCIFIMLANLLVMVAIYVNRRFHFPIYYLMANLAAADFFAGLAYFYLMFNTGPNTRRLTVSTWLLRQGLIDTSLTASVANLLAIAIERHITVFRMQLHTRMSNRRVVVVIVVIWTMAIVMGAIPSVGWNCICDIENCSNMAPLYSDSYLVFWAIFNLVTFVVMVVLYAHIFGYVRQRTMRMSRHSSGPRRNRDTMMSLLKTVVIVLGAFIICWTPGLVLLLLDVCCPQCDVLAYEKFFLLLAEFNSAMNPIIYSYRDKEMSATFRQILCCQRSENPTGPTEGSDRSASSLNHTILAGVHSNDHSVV
T3 sequence (Q9HBW0 whole entry): as the sequence (Q9HBW0 whole entry) above

For CCCCCCCC/C=C\CCCCCCCC(=O)OC[C@@H](O)COP(=O)(O)O [LPA18:1, 1-oleoyl-LPA], the Emax (LPAR2 [1]; compared with other LPAs) was “highest Emax values”, the Emax (LPAR1) was “highest Emax values” and the “specificity (response of mock transduced cells)” value (LPAR1, 2, 3 or 4 [2]; mock-Gα15 transduced cells as control) was “most specific”.
For CCCCCCCCc1ccc(CCC(N)(CO)CO)cc1 [fingolimod], the “LPA concentrations in serum” value (serum LPAs [3]) is listed as “significantly lower”, the LPA serum concentration (serum LPAs [4]) is listed as “additional LPA lowering effect” and the autotaxin inhibition (autotaxin [5]) is listed as “slow acting autotaxin inhibitor”. For the same compound, the “clinical EAE scores” value (RR-EAE SJL/J mice; fingolimod 0.5 mg/kg/day in drinking water from 3 d after immunization) was “only minor effects”.
For CCCCCCCCCCCCCCCCOC[C@@H](O)COP(=O)(O)O [hexadecyl-LPA], the “LPAR activation (agonist activity)” value (LPAR1, 2, 3 or 4 [2]) was “no effects”.
In the case of CCCCCCCCCCCCCCCCCCOC[C@@H](O)COP(=O)(O)O [octadecyl-LPA], the “LPAR activation (agonist activity)” value (LPAR1, 2, 3 or 4 [2]) is reported as “no effects”.
For O=C(O)c1ccccc1SCCCN1C(=O)c2cccc3cccc(c23)C1=O [GRI 977143], the EC50 (LPAR2 [1]; LPAR2 agonist, COS-1 cells) is listed as about 1000 nM, the EC50 (LPAR2 [6]) is listed as 1000 to 3000 nM and the AUC ([7]; calculated from i.p. data) is listed as 4260 ng·h/mL. The CL ([7]; calculated from i.p. data) was 23.5 mL/h, the Vd ([7]; calculated from i.p. data) was 27.3 mL and the Tmax ([7]; plasma, after i.p. administration, SJL/J mice) was 10 min. For the same compound, the “clinical EAE scores” value (RR-EAE SJL/J mice; 100 μg/mouse/d p.o. starting 3 d after immunization up to 35 d, vs vehicle) was “significantly lower clinical EAE scores”, the body weight (RR-EAE SJL/J mice; 100 μg/mouse/d p.o. starting 3 d after immunization, vs vehicle) was “therapeutic efficacy was also evident” and the “infiltration of the white matter of the lumbar spinal cord with myeloid cells (CD11b positive particles)” value (RR-EAE SJL/J mice; 100 μg/mouse/d p.o., 36 days after immunization, vs vehicle) was “much reduced; also recorded: significantly reduced”. For the same compound, the LPAR2 specificity (LPAR1, 2, 3 or 4 [8]) was “confirmed the LPAR2 specificity”.
With O=C(CCN1CCN(C(=O)OCc2cc(Cl)cc(Cl)c2)CC1)c1ccc2[nH]c(=O)oc2c1 [PF8380] the LPA plasma concentration (autotaxin [9]) was “mainly reduced unsaturated LPAs”.
With “natalizumab: alpha-4 integrin (VLA4) targeting monoclonal antibody” the “LPA concentrations in serum” value (serum LPAs [3]) was “significantly lower”, the LPA serum concentration (serum LPAs [4]) was “significantly lower LPA levels” and the “clinical EAE scores” value (RR-EAE SJL/J mice; 3 i.p. injections at d11 (200 μg), d14, d19 (150 μg)) was “reduced the clinical scores”. The “maximum stimulation effect of PMA/Ionomycin on ATX activity” value (autotaxin [10]) was “significantly reduced”.
